Experimental data reported in paper PMC10004157.

Compared with `C[C@H](CO)Nc1nc(SCc2cccc(F)c2F)nc2cnc(-c3cccs3)cc12` [Compound 17d, (2R)-2-[(2-(2,3-Difluorobenzylmercapto)-6-(2-thienyl)-pyrido[3,4-d]pyrimidine-4-yl)amino]propanol], `C[C@H](CO)Nc1nc(SCc2cccc(F)c2F)nc2cnc(-c3ccco3)cc12` [Compound 17b, (2R)-2-[(2-(2,3-Difluorobenzylmercapto)-6-(2-furanyl)-pyrido[3,4-d]pyrimidine-4-yl)amino]propanol] is lower in melting point: 176 to 178 °C for the first, 163 to 165 °C for the second.

Compared with `C[C@H](CO)Nc1nc(SCCc2ccccc2)nc2cnccc12` [Compound 26d, (2R)-2-[(2-(Phenylethylmercapto)-pyrido[3,4-d]pyrimidine-4-yl)amino]propanol], `C[C@H](CO)Nc1nc(Sc2ccccc2)nc2cnccc12` [Compound 26c, (2R)-2-[(2-(Phenylmercapto)-pyrido[3,4-d]pyrimidine-4-yl)amino]propanol] is higher in melting point: 182 to 184 °C for the first, 193 to 196 °C for the second.

Compared with `C[C@H](CO)Nc1nc(SCc2cccc(F)c2F)nc2cncc(Cl)c12` [Compound 9, (2R)-2-[(5-Chloro-2-(2,3-difluorobenzylmercapto)-pyrido[3,4-d]pyrimidine-4-yl)amino]propanol], `C[C@H](CO)Nc1nc(SCc2cccc(F)c2F)nc2cnc(Cl)cc12` [Compound 16a, (2R)-2-[(6-Chloro-2-(2,3-difluorobenzylmercapto)-pyrido[3,4-d]pyrimidine-4-yl)amino]propanol] is higher in melting point: 146 to 148 °C for the first, 211 to 213 °C for the second.

First: C[C@H](CO)Nc1nc(SCc2cccc(F)c2F)nc2cnc(-n3ccnc3)cc12 [Compound 16b, (2R)-2-[(6-Imidazolyl-2-(2,3-difluorobenzylmercapto)-pyrido[3,4-d]pyrimidine-4-yl)amino]propanol]
Second: C[C@H](CO)Nc1nc(SCc2cccc(F)c2F)nc2cnc(N)cc12 [Compound 21, (2R)-2-[(6-Amino-2-(2,3-difluorobenzylmercapto)-pyrido[3,4-d]pyrimidine-4-yl)amino]propanol]
The melting point of the first is higher: 245 to 247 °C for the first, 174 to 176 °C for the second.

`OCCOc1nc(SCc2cccc(F)c2F)nc2cnccc12` [Compound 24e, 3-[(2-(2,3-Difluorobenzylmercapto)-pyrido[3,4-d]pyrimidine-4-yl)oxy]ethanol] and `OCCNc1nc(SCc2cccc(F)c2F)nc2cnccc12` [Compound 24d, 3-[(2-(2,3-Difluorobenzylmercapto)-pyrido[3,4-d]pyrimidine-4-yl)amino]ethanol] fall in the same range of melting point: 181 to 183 °C for the first, 181 to 183 °C for the second.

Compared with `OCC(O)CNc1nc(SCc2cccc(F)c2F)nc2cnccc12` (stereo not drawn) [Compound 24c, 3-[(2-(2,3-Difluorobenzylmercapto)-pyrido[3,4-d]pyrimidine-4-yl)amino]propan-1,2-diol], `CC[C@H](CO)Nc1nc(SCc2cccc(F)c2F)nc2cnccc12` [Compound 24a, (2R)-2-[(2-(2,3-Difluorobenzylmercapto)-pyrido[3,4-d]pyrimidine-4-yl)amino]butanol] is higher in melting point: 156 to 158 °C for the first, 174 to 176 °C for the second.

Compared with `CCCCCCSc1nc(N[C@H](C)CO)c2ccncc2n1` [Compound 26e, (2R)-2-[(2-(Hexylmercapto)-pyrido[3,4-d]pyrimidine-4-yl)amino]propanol], `C[C@H](CO)Nc1nc(OCc2cccc(F)c2F)nc2cnccc12` [Compound 26b, (2R)-2-[(2-(2,3-Difluorobenzyloxy)-pyrido[3,4-d]pyrimidine-4-yl)amino]propanol] is higher in melting point: 147 to 149 °C for the first, 167 to 169 °C for the second.

Compared with `CC(C)(CO)Nc1nc(SCc2cccc(F)c2F)nc2cnccc12` [Compound 24b, 2-[(2-(2,3-Difluorobenzylmercapto)-pyrido[3,4-d]pyrimidine-4-yl)amino]-2-methyl-propan-1-ol], `C[C@H](CO)Nc1nc(NCc2cccc(F)c2F)nc2cnccc12` [Compound 26a, (2R)-2-[(2-(2,3-Difluorobenzylamino)-pyrido[3,4-d]pyrimidine-4-yl)amino]propanol] is lower in melting point: 166 to 168 °C for the first, 136 to 140 °C for the second.

First: Cc1ccc(-c2cc3c(N[C@H](C)CO)nc(SCc4cccc(F)c4F)nc3cn2)o1 [Compound 17c, (2R)-2-[(2-(2,3-Difluorobenzylmercapto)-6-(5-methylfuran-2-yl)-pyrido[3,4-d]pyrimidine-4-yl)amino]propanol]
Second: C[C@H](CO)Nc1nc(SCc2cccc(F)c2F)nc2cnc(-c3ccccc3)cc12 [Compound 17a, (2R)-2-[(2-(2,3-Difluorobenzylmercapto)-6-phenyl-pyrido[3,4-d]pyrimidine-4-yl)amino]propanol]
The melting point of the first is lower: 162 to 164 °C for the first, 202 to 204 °C for the second.
